Data on one molecule can be found in paper PMC12532338, “Characterization of a sesquiterpene synthase and a short-chain dehydrogenase in zerumbone biosynthesis and the applications in engineered Saccharomyces cerevisiae” (Frontiers in Plant Science, 2025).

Molecules are shown by their SMILES.

This test deals with T1, CwTPS8 (Curcuma wenyujin, UniProt A0A8E5B8H5).
T1 construct: complete ORF in pMAL-His (pMAL-c2x with His(8)-tag), E. coli BL21(DE3), Ni-NTA purified; tag removal not described
In words: GC-MS of hexane-extracted products. In kind it is biochemical. The settings on record: formation of main product β-caryophyllene; 50 mM HEPES pH 7.5, 10 mM MgCl2, 5 mM DTT, 5% glycerol; 30°C, 10 min; 10-150 µM FPP; read-out: K m of β-caryophyllene.

T1 sequence (A0A8E5B8H5 entry or part of it): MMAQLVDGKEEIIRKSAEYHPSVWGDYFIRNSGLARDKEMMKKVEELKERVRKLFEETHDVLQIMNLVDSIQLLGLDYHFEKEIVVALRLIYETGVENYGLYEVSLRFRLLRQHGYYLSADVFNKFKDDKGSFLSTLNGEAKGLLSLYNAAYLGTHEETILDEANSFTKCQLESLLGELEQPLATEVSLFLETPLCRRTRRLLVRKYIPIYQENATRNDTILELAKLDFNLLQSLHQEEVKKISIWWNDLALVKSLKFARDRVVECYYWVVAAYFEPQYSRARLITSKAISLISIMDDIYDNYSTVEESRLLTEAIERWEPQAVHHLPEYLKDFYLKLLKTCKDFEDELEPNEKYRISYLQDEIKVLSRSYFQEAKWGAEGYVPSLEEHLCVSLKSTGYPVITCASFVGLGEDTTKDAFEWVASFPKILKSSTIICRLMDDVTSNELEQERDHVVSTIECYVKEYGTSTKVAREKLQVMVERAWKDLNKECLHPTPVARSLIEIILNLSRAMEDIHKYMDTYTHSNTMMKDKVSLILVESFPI

Regarding `CC(C)=CCC/C(C)=C/CC/C(C)=C/CO[P@@](=O)(O)OP(=O)(O)O` [FPP], the Km was found to be 28 µM.
